Measurements published in article PMC10167348, “Structural mechanisms of TRPM7 activation and inhibition” (Nature Communications, 2023).
“And” between values parts separate entries of the source, which are not always exact repeats. Equal entries are not always repeated.

Columns and labels:
[1] = molecular target: T1, TRPM7-A981L (Mus musculus, UniProt Q923J1, A981L); test: Aequorin-based Ca2+ influx assay, inhibition of TRPM7-mediated Ca2+ influx; format: cell-based
T1 construct: expressed in transfected cells; host or cells: HEK 293T
T1 sequence (Q923J1 whole entry A981L): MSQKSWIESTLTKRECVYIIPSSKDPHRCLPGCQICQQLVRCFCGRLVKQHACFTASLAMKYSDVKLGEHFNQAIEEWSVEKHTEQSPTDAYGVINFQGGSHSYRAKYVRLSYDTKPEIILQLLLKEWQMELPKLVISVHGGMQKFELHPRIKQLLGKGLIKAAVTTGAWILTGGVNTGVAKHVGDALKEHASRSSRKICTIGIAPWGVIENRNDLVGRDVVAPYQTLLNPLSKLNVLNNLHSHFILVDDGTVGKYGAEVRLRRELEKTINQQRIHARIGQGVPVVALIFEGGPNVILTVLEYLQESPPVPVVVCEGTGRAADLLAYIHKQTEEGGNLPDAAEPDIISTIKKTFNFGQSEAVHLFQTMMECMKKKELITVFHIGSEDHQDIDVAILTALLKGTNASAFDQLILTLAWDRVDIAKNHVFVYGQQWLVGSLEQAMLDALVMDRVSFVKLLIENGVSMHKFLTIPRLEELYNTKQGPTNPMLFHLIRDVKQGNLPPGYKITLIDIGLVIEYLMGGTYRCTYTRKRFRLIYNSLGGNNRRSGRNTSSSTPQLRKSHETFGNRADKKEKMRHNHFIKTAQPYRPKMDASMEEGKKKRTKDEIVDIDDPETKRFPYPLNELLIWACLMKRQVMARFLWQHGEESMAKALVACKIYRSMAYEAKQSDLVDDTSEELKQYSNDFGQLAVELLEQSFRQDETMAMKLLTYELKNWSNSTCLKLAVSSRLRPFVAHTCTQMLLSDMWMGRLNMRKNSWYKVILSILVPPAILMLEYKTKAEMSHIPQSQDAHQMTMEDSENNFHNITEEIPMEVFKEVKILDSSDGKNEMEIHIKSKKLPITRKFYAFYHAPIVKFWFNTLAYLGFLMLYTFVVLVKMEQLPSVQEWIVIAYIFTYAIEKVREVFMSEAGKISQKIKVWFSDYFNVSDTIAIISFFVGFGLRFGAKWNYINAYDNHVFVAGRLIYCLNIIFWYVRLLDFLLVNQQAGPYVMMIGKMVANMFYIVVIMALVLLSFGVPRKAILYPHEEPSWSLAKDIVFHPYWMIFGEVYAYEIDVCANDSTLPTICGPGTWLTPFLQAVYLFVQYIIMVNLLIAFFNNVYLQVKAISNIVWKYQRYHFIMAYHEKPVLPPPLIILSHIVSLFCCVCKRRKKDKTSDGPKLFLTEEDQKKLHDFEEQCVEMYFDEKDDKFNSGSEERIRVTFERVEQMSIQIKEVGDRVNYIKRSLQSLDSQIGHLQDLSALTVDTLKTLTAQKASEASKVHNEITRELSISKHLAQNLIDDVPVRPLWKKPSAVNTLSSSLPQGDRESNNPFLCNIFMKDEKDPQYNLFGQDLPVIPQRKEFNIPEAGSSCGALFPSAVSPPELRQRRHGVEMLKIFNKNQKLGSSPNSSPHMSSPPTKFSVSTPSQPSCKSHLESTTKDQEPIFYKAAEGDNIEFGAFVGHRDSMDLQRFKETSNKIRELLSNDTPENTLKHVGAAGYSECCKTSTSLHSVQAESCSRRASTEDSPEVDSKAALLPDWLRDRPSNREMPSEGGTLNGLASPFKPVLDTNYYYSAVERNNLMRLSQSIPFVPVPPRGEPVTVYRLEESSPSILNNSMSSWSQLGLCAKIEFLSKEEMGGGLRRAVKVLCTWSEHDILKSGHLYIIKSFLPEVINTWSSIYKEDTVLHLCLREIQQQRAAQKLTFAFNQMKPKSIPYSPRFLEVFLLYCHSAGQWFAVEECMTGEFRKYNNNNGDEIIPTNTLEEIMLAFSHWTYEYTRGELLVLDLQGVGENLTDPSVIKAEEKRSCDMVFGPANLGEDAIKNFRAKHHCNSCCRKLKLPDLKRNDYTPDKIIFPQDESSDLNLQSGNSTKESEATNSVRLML
Procedure: (§1) Measurements of [Ca^2+]i were performed as reported previously with several modifications[2],[52],[54]. HEK 293T cells (mycoplasma test negative, ATCC #CRL3216) were maintained at 37 °C and 5% CO2 in DMEM supplemented with 10% fetal calf serum, 100 µg/ml streptomycin and 100 U/ml penicillin (all from Thermo Fisher Scientific). Cells cultured in six-well plates (~60% confluence) were transfected with 2 µg/dish Trpm7 plasmid DNA and 0.1 µg/dish pG5A plasmid DNA encoding eGFP fused to Aequorea victoria aequorin, using Lipofectamine 2000 (Thermo Fisher Scientific). Twenty-four hours after transfection, the cells were washed with Mg^2+-free HEPES-buffered saline (Mg^2+-free HBS) containing 140 mM NaCl, 6 mM KCl, 0.5 mM CaCl2, 10 mM HEPES (pH 7.4) and 5 mM glucose, and mechanically resuspended in the Mg^2+-free HBS. For reconstitution of aequorin, cell suspensions were incubated with 5 µM coelenterazine (Biaffin GmbH) in the Mg^2+-free HBS for 30 min at room temperature. Cells were washed twice by centrifugation at 600 rpm for 5 min (Heraeus Pico 17 microcentrifuge, Thermo Fisher Scientific), resuspended in the Mg^2+-free HBS and aliquoted into 96-well plates (1 × 10^5 cells per well). Luminescence was detected at room temperature using a FLUOstar OPTIMA microplate reader (BMG LABTECH GmbH). To monitor the NS8593- and VER155008-induced inhibition of TRPM7-mediated Ca^2+ influx, the extracellular concentration of Ca^2+ was increased to 5 mM by injecting the CaCl2-containing Mg^2+-free HBS in the absence or presence of the inhibitors. […] To study activation by naltriben, TRPM7-transfected cells were exposed to Mg^2+-free HBS containing different concentrations of the agonist. The experiments were terminated by lysing cells with 0.1% (v/v) Triton X-100 in the Mg^2+-free HBS to record the total bioluminescence. The bioluminescence rates (counts/s) were analyzed at 1-s intervals and calibrated as [Ca^2+]i values using the following equation:1 p[Ca^2+]i=0.332588(−log(k))+5.5593 where k represents the rate of aequorin consumption, i.e., counts/s divided by the total number of counts.
(§2) To determine the IC50 values for NS8593 and VER155008 (EC50 for naltriben), the data were fitted with the following logistic equation:2 Ec=Emin+Emax+Emin/1+c^h/IC50^h where E(c) is the functional effect at the concentration c of the compound, Emin is the minimal effect, Emax is the maximal effect, IC50 (EC50) is the concentration of the compound that produces the half-maximal effect, and h is the Hill coefficient. Fitting of dose-response curves was performed using GraphPad Prism 8.4.0. Data are presented as the mean ± SEM.

[2] = molecular target: T2, TRPM7-N1098Q (Mus musculus, UniProt Q923J1, N1098Q); test: as above; format: cell-based
T2 construct: expressed in transfected cells; host or cells: HEK 293T
T2 sequence (Q923J1 whole entry N1098Q): as the sequence (Q923J1 whole entry A981L) above, with L981A, N1098Q counted along it
Procedure: as §1, §2

[3] = system: TRPM7-N1098Q; set-up: method as in Schmidt et al., 2022, PMID: 35389104; settings: ref Schmidt et al., 2022, PMID: 35389104; cited from earlier work
[4] = molecular target: T3, TRPM7-M741A (Mus musculus, UniProt Q923J1, M741A); test: Aequorin-based Ca2+ influx assay, activation by naltriben; format: cell-based; settings: for TRPM7 activation, fold: replicate values
T3 construct: expressed in transfected cells; host or cells: HEK 293T
T3 sequence (Q923J1 whole entry M741A): as the sequence (Q923J1 whole entry A981L) above, with M741A, L981A counted along it
Procedure: as §1, §2

[5] = molecular target: T4, TRPM7-N752K (Mus musculus, UniProt Q923J1, N752K); test: as above; format: cell-based
T4 construct: expressed in transfected cells; host or cells: HEK 293T
T4 sequence (Q923J1 whole entry N752K): as the sequence (Q923J1 whole entry A981L) above, with N752K, L981A counted along it
Procedure: as §1, §2

[6] = molecular target: T5, TRPM7-S744A (Mus musculus, UniProt Q923J1, S744A); test: as above; format: cell-based
T5 construct: expressed in transfected cells; host or cells: HEK 293T
T5 sequence (Q923J1 whole entry S744A): as the sequence (Q923J1 whole entry A981L) above, with S744A, L981A counted along it
Procedure: as §1, §2

[7] = molecular target: T6, TRPM7 WT (Mus musculus, UniProt Q923J1); test: as above; format: cell-based; settings: for TRPM7 activation, fold: replicate values
T6 construct: expressed in transfected cells; host or cells: HEK 293T
T6 sequence (Q923J1 whole entry): as the sequence (Q923J1 whole entry A981L) above, with L981A counted along it
Procedure: as §1, §2

[8] = molecular target: T7, TRPM7-L671A (Mus musculus, UniProt Q923J1, L671A); test: as above; format: cell-based
T7 construct: expressed in transfected cells; host or cells: HEK 293T
T7 sequence (Q923J1 whole entry L671A): as the sequence (Q923J1 whole entry A981L) above, with L671A, L981A counted along it
Procedure: as §1, §2

[9] = molecular target: T8, TRPM7-L671A/N752K (Mus musculus, UniProt Q923J1, L671A/N752K); test: as above; format: cell-based
T8 construct: expressed in transfected cells; host or cells: HEK 293T
T8 sequence (Q923J1 whole entry L671A/N752K): as the sequence (Q923J1 whole entry A981L) above, with L671A, N752K, L981A counted along it
Procedure: as §1, §2

[10] = molecular target: T9, TRPM7-D670A (Mus musculus, UniProt Q923J1, D670A); test: as above; format: cell-based; settings: for TRPM7 activation, fold: replicate values
T9 construct: expressed in transfected cells; host or cells: HEK 293T
T9 sequence (Q923J1 whole entry D670A): as the sequence (Q923J1 whole entry A981L) above, with D670A, L981A counted along it
Procedure: as §1, §2

c1ccc2c(c1)CCC[C@H]2Nc1nc2ccccc2[nH]1 [NS8593]
remaining activity at 0.3 µM ([1]; [NS8593] 0.3 µM, replicate values, read-out: TRPM7 activity, 100%): 105% | remaining activity at 0.7 µM ([1]; [NS8593] 0.7 µM, replicate values, read-out: TRPM7 activity, 100%): 114% | remaining activity at 1 µM ([1]; [NS8593] 1.0 µM, replicate values, read-out: TRPM7 activity, 100%): 112% | remaining activity at 3 µM ([1]; [NS8593] 3.0 µM, replicate values, read-out: TRPM7 activity, 100%): 99.4% | Hill coefficient ([1]; antagonist, mean ± SEM): –1.61 ± 0.45 | IC50 ([1]; antagonist, mean ± SEM): 11.6 ± 2.75 µM | remaining activity at 0.3 µM ([2]; N1097Q (so in the source), [NS8593] 0.3 µM, replicate values, read-out: TRPM7 activity, 100%): 90.4% | remaining activity at 0.5 µM ([2]; N1097Q (so in the source), [NS8593] 0.5 µM, replicate values, read-out: TRPM7 activity, 100%): 95% | remaining activity at 0.7 µM ([2]; N1097Q (so in the source), [NS8593] 0.7 µM, replicate values, read-out: TRPM7 activity, 100%): 87.7% | remaining activity at 1 µM ([2]; N1097Q (so in the source), [NS8593] 1.0 µM, replicate values, read-out: TRPM7 activity, 100%): 82.4% | remaining activity at 5 µM ([2]; N1097Q (so in the source), [NS8593] 5.0 µM, replicate values, read-out: TRPM7 activity, 100%): 64.3% | remaining activity at 7 µM ([2]; N1097Q (so in the source), [NS8593] 7.0 µM, replicate values, read-out: TRPM7 activity, 100%): 59.4% | remaining activity at 10 µM ([2]; N1097Q (so in the source), [NS8593] 10.0 µM, replicate values, read-out: TRPM7 activity, 100%): 43.2% | TRPM7 activity, 100% ([2]; N1097Q (so in the source), [NS8593] 50.0 µM, replicate values): 0.0% | remaining activity at 50 µM ([2]; N1097Q (so in the source), [NS8593] 50.0 µM, replicate values, read-out: TRPM7 activity, 100%): 0% | Hill coefficient ([2]; N1098Q, antagonist, mean ± SEM): –0.93 ± 0.20 | IC50 ([2]; N1098Q, antagonist, mean ± SEM): 20.5 ± 10.7 µM

Oc1ccc2c3c1O[C@H]1c4oc5ccccc5c4C[C@@]4(O)[C@@H](C2)N(CC2CC2)CC[C@]314 [Naltriben, naltriben]
response of the N1098Q variant to the agonist [3]: did not respond | EC50 [4]: 85 ± 6.51 µM | TRPM7 activation, fold ([4]; M741A, [Naltriben] 10 µM): 0.99 fold and 1.09 fold and 1.07 fold (2×) | TRPM7 activation, fold ([4]; M741A, [Naltriben] 20 µM): 1.10 fold and 1.30 fold and 1.28 fold and 1.20 fold | TRPM7 activation, fold ([4]; M741A, [Naltriben] 30 µM): 1.39 fold and 1.61 fold and 1.52 fold and 1.40 fold | TRPM7 activation, fold ([4]; M741A, [Naltriben] 40 µM): 1.53 fold and 1.69 fold and 1.74 fold and 1.64 fold | TRPM7 activation, fold ([4]; M741A, [Naltriben] 50 µM): 1.77 fold and 2.03 fold and 1.91 fold and 1.96 fold | TRPM7 activation, fold ([4]; M741A, [Naltriben] 100 µM): 2.28 fold and 2.65 fold and 2.56 fold and 2.47 fold | TRPM7 activation, fold ([4]; M741A, [Naltriben] 200 µM): 2.83 fold and 3.14 fold and 3.02 fold and 2.90 fold | TRPM7 activation, fold ([4]; M741A, [Naltriben] 300 µM): 3.11 fold and 3.30 fold and 3.34 fold and 3.20 fold | TRPM7 activation, fold ([4]; M741A, [Naltriben] 400 µM): 3.18 fold and 3.51 fold and 3.48 fold and 3.46 fold | TRPM7 activation, fold ([4]; M741A, [Naltriben] 500 µM): 3.39 fold and 3.58 fold (2×) and 3.45 fold | Hill coefficient ([4]; M741A, agonist, mean ± SEM): 1.37 ± 0.11 | EC50 [5]: 191 ± 18 µM | Hill coefficient ([5]; N752K, agonist, mean ± SEM): 1.91 ± 0.24 | EC50 [6]: 71.8 ± 9.7 µM | Hill coefficient ([6]; S744A, agonist, mean ± SEM): 1.48 ± 0.25 | EC50 [7]: 65.8 ± 12.4 µM | TRPM7 activation, fold ([7]; WT, [Naltriben] 100 µM): 3.40 fold and 2.89 fold and 2.30 fold and 2.40 fold and 3.03 fold and 3.14 fold | TRPM7 activation, fold ([7]; WT, [Naltriben] 200 µM): 4.23 fold and 3.70 fold and 3.66 fold and 2.99 fold and 3.63 fold and 3.89 fold | TRPM7 activation, fold ([7]; WT, [Naltriben] 300 µM): 4.35 fold and 3.85 fold and 3.80 fold and 3.47 fold and 3.56 fold and 4.23 fold | TRPM7 activation, fold ([7]; WT, [Naltriben] 400 µM): 4.51 fold and 3.90 fold and 3.86 fold and 3.52 fold and 3.70 fold and 4.17 fold | TRPM7 activation, fold ([7]; WT, [Naltriben] 500 µM): 4.41 fold and 4.17 fold and 4.05 fold and 3.42 fold and 4.20 fold and 4.10 fold | Hill coefficient ([7]; WT, agonist, mean ± SEM): 1.23 ± 0.25 | EC50 [8]: 145 ± 22.9 µM | Hill coefficient ([8]; L671A, agonist, mean ± SEM): 1.68 ± 0.32 | EC50 [9]: 230 ± 48.9 µM | Hill coefficient ([9]; N752K/ L671A, agonist, mean ± SEM): 2.82 ± 1.38 | EC50 [10]: 117 ± 32.4 µM | TRPM7 activation, fold ([10]; D670A, [Naltriben] 10 µM): 1.01 fold and 1.02 fold and 1.12 fold | TRPM7 activation, fold ([10]; D670A, [Naltriben] 20 µM): 1.24 fold and 1.22 fold and 1.21 fold | TRPM7 activation, fold ([10]; D670A, [Naltriben] 30 µM): 1.55 fold and 1.37 fold (2×) | TRPM7 activation, fold ([10]; D670A, [Naltriben] 40 µM): 1.67 fold and 1.48 fold and 1.56 fold | TRPM7 activation, fold ([10]; D670A, [Naltriben] 50 µM): 2.45 fold and 1.56 fold and 1.72 fold | TRPM7 activation, fold ([10]; D670A, [Naltriben] 100 µM): 2.45 fold and 2.03 fold and 2.05 fold | TRPM7 activation, fold ([10]; D670A, [Naltriben] 200 µM): 3.19 fold and 2.69 fold and 2.68 fold | TRPM7 activation, fold ([10]; D670A, [Naltriben] 300 µM): 3.34 fold and 3.00 fold and 2.98 fold | TRPM7 activation, fold ([10]; D670A, [Naltriben] 400 µM): 3.55 fold and 3.27 fold and 3.16 fold | TRPM7 activation, fold ([10]; D670A, [Naltriben] 500 µM): 3.71 fold and 3.18 fold and 3.31 fold | Hill coefficient ([10]; D670A, agonist, mean ± SEM): 1.17 ± 0.24
